Results from patent US20150132388A1 (Druggability Technologies Holdings Limited, priority 2013, published 2015).

Tests used:
PAMPA permeability = assay type: in vitro ADME; details: both the fed and fasted state simulating conditions
Method: Reference source not found. PAMPA permeability measurements were performed as described by M. Kansi et al. (Journal of medicinal chemistry, 41, (1998) pp 1007) with modifications based on S. Bendels et al (Pharmaceutical research, 23 (2006) pp 2525). Permeability was measured in a 96-well plate assay across an artificial membrane composed of dodecane with 20% soy lecithin supported by a PVDF membrane (Millipore, USA). The receiver compartment was phosphate buffered saline (pH 7.0) supplemented with 1% sodium dodecyl sulfate. The assay was performed at room temperature; incubation time was 1-24 hours. The concentration in the receiver compartment was determined by UV-VIS spectrophotometry (Thermo Scientific Genesys S10).
The ratio of the selected complexation agents and pharmaceutically acceptable excipients (Lutrol F127 and Sodium acetate) was optimized.

[1] = tested on: xenografts of human breast cancer MCF-7 cells; details: cited from earlier work
[2] = Comparative solubility test (apparent solubility, UV-VIS); assay type: physicochemical; details: distillated water, room temperature, 100 nm syringe filter
Method: The samples were dispersed in distillated water and the resulting dispersions were filtered by 100 nm disposable syringe filter. The active content in the filtrate was measured by UV-Vis spectrophotometry and the solubility was calculated.

[3] = tested on: tamoxifen-resistant, as well as estrogen-sensitive human breast cancer (MCF-7) cell lines; details: tamoxifen-resistant and estrogen-sensitive MCF-7 cell lines; cited from earlier work
[4] = immature rats and ovariectomized monkeys; cited from earlier work
[5] = cited from earlier work
[6] = immature or ovariectomized mice and rats; cited from earlier work
[7] = intramuscular injection of 250 mg

## 7-alpha-[9-(4,4,5,5,5-penta fluoropentylsulphinyl)nonyl]estra-1,3,5-(10)-triene-3,17 beta-diol [Fulvestrant]
PAMPA permeability
  PAMPA permeability: not detectable
[1]; MCF-7 cells in nude mice
  Establishment of tumors from xenografts: delayed the establishment of tumors
[1]; established MCF-7 xenografts and tamoxifen-resistant breast tumor xenografts
  Growth of established xenografts: inhibited the growth
[2]
  Solubility (apparent solubility): < 30 µg/mL
[3]
  Inhibition of cell growth: reversible inhibitor of the growth
[4]
  Effect on the uterotrophic action of estradiol: blocked the uterotrophic action of estradiol
[5]; 250 mg intramuscularly
  Time to maximum plasma concentrations: about 7 days
[5]; in vivo
  Excretion via the feces: approximately 90%
  Renal elimination: less than 1%
[5]; [7]
  Apparent half-life: about 40 days
  Clearance (Mean±SD): 690 ± 226 mL/min
[5]; intramuscular, between study comparisons
  Bioavailability: 90-100%
[5]; once a month administration
  Accumulation: 2-3 fold
  Time to steady state: about 6 months
[5]; single dose studies, intramuscular
  Terminal half-life: about 50 days
[6]
  Agonist-type effects in uterotropic assays: no agonist-type effects
